Assay results taken from patent US20170217889A1, “4-SUBSTITUTED PYRIDINE-2,6-DICARBOXYLIC ACID DERIVATIVES AND METHOD OF PREPARING SAME” (Okinawa Institute of Science and Technology School …, priority 2014, published 2017).

Test: Cytotoxicity, K562 cell growth inhibition (Cell Counting Kit-8 / WST-8)
Format: cell-based
Settings: human; K562 cells; 6-48 hrs incubation; WST-8 absorbance at 450 nm; read-out: Cytotoxic activity evaluated using K562 cells IC50
Experimental: K562 cells (American Type Culture Collection) were cultured in a culture medium containing 10% (v/v) fetal calf serum (FCS) (manufactures by Sigma) to logarithmic phase. The cells were seeded in 96-well microtiter plate at a density of 5000 cells/well in 100 μL cell culture medium and incubated at 37° C. and 5% CO2 in a humidified incubator overnight. The test compounds of various concentrations were added in a well at 10 fold concentration in 1/10 volume of medium without FCS. After 6-48 hrs incubation at 37° C. in the CO2 incubator, 10 uL solution of the viable cell counting reagent, Cell counting Kit-8 (5 mmol/L WST-8, 0.2 mmol/L 1-Methoxy PMS, 150 mmol/L NaCl) (manufactured by Dojindo) was added to each well, and reacted for 1 to 4 hours in the CO2 incubator. After the incubation, an absorbance of formazan, generated by reduction of WST-8, was determined at 450 nm using a microplate reader.
The assay readout is correlated with the viable cell numbers. Lower values correspond to high inhibition and greater values to low inhibition of the cell growth. To determine IC50 values (i.e. the concentration inhibiting the cell growth by 50%) of the compounds of formula I, several assays were made with a range of concentrations chosen empirically to give low, high and intermediate inhibition of the growth and determined using curve fitting software.

Row | Structure (SMILES) | IC50 [µM]
1 | CCOC(=O)c1cc(-c2ccc(Br)cc2)cc(C(=O)OCC)n1 | 35
2 | CCOC(=O)c1cc(-c2ccc(Cl)cc2)cc(C(=O)OCC)n1 | 50
3 | CCOC(=O)c1cc(C2CCCCC2)cc(C(=O)OCC)n1 | 51
